Results from ChEMBL document CHEMBL6103571, “Design, synthesis, and evaluation of carboxylic acid-substituted celecoxib isosteres as potential anti-inflammatory agents” (Eur J Med Chem, 2025).
Active and inactive are the calls of the source. The rule behind the calls is not given here.

What was measured:
RAW264.7 [1] = test: Anti-inflammatory activity against LPS-induced mouse RAW264.7 cells assessed as inhibition of NO production at 20 uM preincubated for 1 hrs followed by LPS addition and measured after 24 hrs by Griess reagent-based microplate reader analysis relative to control; type: functional; conditions: time 25 hrs
[2] = Cytotoxicity against mouse RAW264.7 cells incubated for 24 hrs by MTT assay; type: toxicity, cell-based
Mus musculus [3] = test: Anti-inflammatory activity against TPA-induced Kunming mouse ear edema model assessed as downregulation of COX-2 level in ear homogenate pre-administered topically via ear for 30 mins followed by TPA addition and measured after 6 hrs by Western blot analysis; type: functional, organism-based; conditions: dose 0.5-1 mg, route top, time 6.5 hrs
[4] = target: T1, Prostaglandin G/H synthase 2 (Homo sapiens, UniProt P35354); test: Inhibition of recombinant human COX-2 using arachidonic acid as substrate preincubated for 10 mins followed by substrate addition and measured after 2 mins by ELISA
T1 sequence (P35354 whole entry): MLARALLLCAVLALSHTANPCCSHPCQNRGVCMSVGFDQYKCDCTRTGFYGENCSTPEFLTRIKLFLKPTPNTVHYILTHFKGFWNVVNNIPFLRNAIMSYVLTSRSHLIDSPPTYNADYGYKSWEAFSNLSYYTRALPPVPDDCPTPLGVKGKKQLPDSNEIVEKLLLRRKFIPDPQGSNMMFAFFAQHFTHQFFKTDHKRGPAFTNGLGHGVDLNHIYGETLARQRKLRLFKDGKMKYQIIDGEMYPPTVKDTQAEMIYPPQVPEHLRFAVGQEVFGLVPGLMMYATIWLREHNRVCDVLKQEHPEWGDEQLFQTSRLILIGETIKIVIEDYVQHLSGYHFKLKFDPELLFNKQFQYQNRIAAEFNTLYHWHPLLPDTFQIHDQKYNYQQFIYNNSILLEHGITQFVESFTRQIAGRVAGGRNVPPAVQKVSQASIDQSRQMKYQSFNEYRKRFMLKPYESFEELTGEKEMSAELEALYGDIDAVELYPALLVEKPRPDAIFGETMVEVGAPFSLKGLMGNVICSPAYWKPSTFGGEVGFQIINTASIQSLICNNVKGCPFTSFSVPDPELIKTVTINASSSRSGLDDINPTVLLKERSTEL

RAW264.7 [5] = test: Anti-inflammatory activity in LPS-induced mouse RAW264.7 cells assessed as downregulation of COX-2 expression at 12.5 to 50 uM preincubated for 1 hrs followed by LPS addition for 24 hrs by Western blotting analysis; type: functional, cell-based; conditions: dose 12.5-50 µM, time 25.0 hrs
[6] = Selectivity index, ratio of IC50 for ovine COX-1 to IC50 for human COX-2
[7] = target: T2, Prostaglandin G/H synthase 1 (Ovis aries, UniProt P05979); test: Inhibition of ovine COX-1 using arachidonic acid as substrate preincubated for 10 mins followed by substrate addition and measured after 2 mins by ELISA
T2 sequence (P05979 whole entry): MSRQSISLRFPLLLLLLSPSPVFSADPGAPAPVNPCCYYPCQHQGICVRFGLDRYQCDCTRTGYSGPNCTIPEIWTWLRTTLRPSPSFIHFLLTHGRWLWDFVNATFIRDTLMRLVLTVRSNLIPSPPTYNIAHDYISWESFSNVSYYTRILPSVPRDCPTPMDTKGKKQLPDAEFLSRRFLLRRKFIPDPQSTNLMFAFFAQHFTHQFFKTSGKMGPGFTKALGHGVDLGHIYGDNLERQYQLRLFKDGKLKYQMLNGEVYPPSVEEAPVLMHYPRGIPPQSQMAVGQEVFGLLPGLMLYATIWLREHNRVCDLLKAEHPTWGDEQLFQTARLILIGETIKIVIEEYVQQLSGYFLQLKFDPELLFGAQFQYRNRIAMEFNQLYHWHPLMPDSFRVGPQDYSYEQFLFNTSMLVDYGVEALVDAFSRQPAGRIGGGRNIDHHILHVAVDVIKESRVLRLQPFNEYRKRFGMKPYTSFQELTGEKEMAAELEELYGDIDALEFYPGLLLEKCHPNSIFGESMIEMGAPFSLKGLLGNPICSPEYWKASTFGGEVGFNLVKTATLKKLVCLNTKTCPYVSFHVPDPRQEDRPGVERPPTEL

[8] = Toxicity in Sprague-Dawley rat assessed as ulcer index at 100 mg/kg, po administrated for 3 days and measured after 2 hrs post last dose; type: organism-based; conditions: in vivo, 74 h
Mus musculus [9] = test: Anti-inflammatory activity against TPA-induced Kunming mouse ear edema model assessed as inhibition of PGE2 production in ear homogenate pre-administered topically via ear for 30 mins followed by TPA addition and measured after 6 hrs by ELISA; type: functional, organism-based; conditions: dose 0.5-1 mg, route top, time 6.5 hrs
[10] = Toxicity in male Sprague-Dawley rat assessed as average number of ulcers at 100 mg/kg, po administrated for 3 days and measured after 2 hrs post last dose; type: organism-based; conditions: in vivo, 74 h
Mus musculus [11] = test: Anti-inflammatory activity in TPA-induced male Kunming mouse model of ear edema assessed as reduction in ear thickness at 0.5 to 1.0 mg, TOP pre-administered via ear for 30 mins followed by TPA addition and measured after 6 hrs; type: functional, organism-based; conditions: dose 0.5-1 mg, time 6.5 hrs
Mus musculus [12] = test: Anti-inflammatory activity in TPA-induced male Kunming mouse model of ear edema assessed as reduction in ear weight at 0.5 to 1.0 mg, TOP pre-administered via ear for 30 mins followed by TPA addition and measured after 6 hrs; type: functional, organism-based; conditions: dose 0.5-1 mg, time 6.5 hrs
[13] = Toxicity in male Sprague-Dawley rat assessed as ulcer score at 100 mg/kg, po administrated for 3 days and measured after 2 hrs post last dose; type: organism-based; conditions: in vivo, 74 h
Mus musculus [14] = test: Anti-inflammatory activity in TPA-induced male Kunming mouse model of ear edema assessed as reduction in ear erythema pre-administered topically via ear for 30 mins followed by TPA addition and measured after 6 hrs; type: functional, organism-based; conditions: dose 0.5-1 mg, route top, time 6.5 hrs
RAW264.7 [15] = test: Anti-inflammatory activity in LPS-induced mouse RAW264.7 cells assessed as reduction in PGE2 production preincubated for 1 hrs followed by LPS addition for 24 hrs by ELISA; type: functional, cell-based; conditions: dose 12.5-50 µM, time 25.0 hrs
Mus musculus [16] = test: Anti-inflammatory activity in TPA-induced male Kunming mouse model of ear edema assessed as reduction in ear erythema at 1.0 mg, TOP pre-administered via ear for 30 mins followed by TPA addition and measured after 6 hrs; type: functional, organism-based; conditions: time 6.5 hrs
Mus musculus [17] = test: Anti-inflammatory activity in TPA-induced male Kunming mouse model of ear edema assessed as reduction in ear weight at 1.0 mg, TOP pre-administered via ear for 30 mins followed by TPA addition and measured after 6 hrs; type: functional, organism-based; conditions: time 6.5 hrs
Mus musculus [18] = test: Anti-inflammatory activity in TPA-induced male Kunming mouse model of ear edema assessed as reduction in ear thickness at 1.0 mg, TOP pre-administered via ear for 30 mins followed by TPA addition and measured after 6 hrs; type: functional, organism-based; conditions: time 6.5 hrs
[19] = Toxicity in Sprague-Dawley rat assessed as average number of ulcers at 50 mg/kg, po administrated for 3 days and measured after 2 hrs; type: organism-based; conditions: in vivo, 74 h
[20] = Toxicity in Sprague-Dawley rat assessed as ulcer score at 50 mg/kg, po administrated for 3 days and measured after 2 hrs; type: organism-based; conditions: in vivo, 74 h
[21] = Toxicity in Sprague-Dawley rat assessed as ulcer index at 50 mg/kg, po administrated for 3 days and measured after 2 hrs; type: organism-based; conditions: in vivo, 74 h

SMILES | inhibition at 20 µM (RAW264.7 [1]) [%] | IC50 at 24 h [2] [µM] | also measured
NS(=O)(=O)c1ccc(-c2nnc(SCC(=O)O)n2-c2cccc(F)c2)cc1 | 15.1 | > 100 | 
NS(=O)(=O)c1ccc(-c2nnc(SCC(=O)O)n2-c2ccc(I)cc2)cc1 | 30.8 | > 100 | Activity (Mus musculus [3]): Dose-dependent-effect; IC50 [4]: 0.054 µM; Activity (RAW264.7 [5]): Active; Ratio IC50 [6]: 296; IC50 [7]: 16 µM; UI [8]: 5.2; Activity (Mus musculus [9]): Dose-dependent-effect; Activity [10]: 0.6; Activity (Mus musculus [11]): Active; Activity (Mus musculus [12]): Active; Activity [13]: 0.6; Activity (Mus musculus [14]): Dose-dependent-effect; Activity (RAW264.7 [15]): Dose-dependent-effect
NS(=O)(=O)c1ccc(-c2nnc(SCC(=O)O)n2-c2cccc([N+](=O)[O-])c2)cc1 | 13.2 | > 100 | 
Cc1ccccc1-n1c(SCC(=O)O)nnc1-c1ccc(S(N)(=O)=O)cc1 | 18.8 | > 100 | 
NS(=O)(=O)c1ccc(-c2nnc(SCC(=O)O)n2-c2ccccc2I)cc1 | 17.9 | > 100 | 
NS(=O)(=O)c1ccc(-c2nnc(SCC(=O)O)n2-c2ccccc2F)cc1 | 13.6 | > 100 | 
NS(=O)(=O)c1ccc(-c2nnc(SCC(=O)O)n2-c2ccccc2[N+](=O)[O-])cc1 | 13.8 | > 100 | 
NS(=O)(=O)c1ccc(-c2nnc(SCC(=O)O)n2-c2cccc(Cl)c2)cc1 | 19.1 | > 100 | 
NS(=O)(=O)c1ccc(-c2nnc(SCC(=O)O)n2-c2ccccc2Br)cc1 | 14 | > 100 | 
Cc1ccc(-n2c(SCC(=O)O)nnc2-c2ccc(S(N)(=O)=O)cc2)cc1 | 22.3 | 74.6 | 
NS(=O)(=O)c1ccc(-c2nnc(SCC(=O)O)n2-c2ccccc2C(F)(F)F)cc1 | 20.7 | > 100 | 
NS(=O)(=O)c1ccc(-c2nnc(SCC(=O)O)n2-c2cccc(Br)c2)cc1 | 14.1 | > 100 | 
COc1ccc(-n2c(SCC(=O)O)nnc2-c2ccc(S(N)(=O)=O)cc2)cc1 | 18.7 | > 100 | 
NS(=O)(=O)c1ccc(-c2nnc(SCC(=O)O)n2-c2ccc(Br)cc2)cc1 | 21 | > 100 | 
Cc1ccc(-c2cc(C(F)(F)F)nn2-c2ccc(S(N)(=O)=O)cc2)cc1 [CELECOXIB] | 38.1 |  | Activity (Mus musculus [16]): Active; Activity (Mus musculus [17]): Active; UI [8]: 6.3; Activity (Mus musculus [18]): Active; Activity [10]: 0.8; Activity [13]: 1.5
COc1cccc(-n2c(SCC(=O)O)nnc2-c2ccc(S(N)(=O)=O)cc2)c1 | 15.6 | > 100 | 
COc1ccccc1-n1c(SCC(=O)O)nnc1-c1ccc(S(N)(=O)=O)cc1 | 12.9 | > 100 | 
NS(=O)(=O)c1ccc(-c2nnc(SCC(=O)O)n2-c2ccc([N+](=O)[O-])cc2)cc1 | 23.9 | > 100 | 
NS(=O)(=O)c1ccc(-c2nnc(SCC(=O)O)n2-c2cccc(I)c2)cc1 | 22.5 | > 100 | 
NS(=O)(=O)c1ccc(-c2nnc(SCC(=O)O)n2-c2ccc(F)cc2)cc1 | 15.4 | > 100 | 
NS(=O)(=O)c1ccc(-c2nnc(SCC(=O)O)n2-c2ccccc2Cl)cc1 | 20.9 | > 100 | 
COc1ccc2c(c1)c(CC(=O)O)c(C)n2C(=O)c1ccc(Cl)cc1 [INDOMETHACIN] |  |  | Activity [19]: 3.18; Activity [20]: 15.6; UI [21]: 28.78
NS(=O)(=O)c1ccc(-c2nnc(SCC(=O)O)n2-c2cccc(C(F)(F)F)c2)cc1 | 21.1 | > 100 | 
NS(=O)(=O)c1ccc(-c2nnc(SCC(=O)O)n2-c2ccc(Cl)cc2)cc1 | 22.4 | > 100 | 
NS(=O)(=O)c1ccc(-c2nnc(SCC(=O)O)n2-c2ccc(C(F)(F)F)cc2)cc1 | 22.6 | 62.2 | 
Cc1cccc(-n2c(SCC(=O)O)nnc2-c2ccc(S(N)(=O)=O)cc2)c1 | 17.7 | 76.6 | 
